In patent US8530636B2, “Method for regulating protein function in cells in vivo using synthetic small molecules” (priority 2008, dated 2013):
“Also recorded” adds a separate entry of the source.

Key:
FKBP L106P-YFP fusion = biological target: T1, FKBP L106P-YFP fusion (Homo sapiens, UniProt P62942, F37V); experiment: Shield1 dose-response of FKBP-YFP fluorescence, flow cytometry; type: cell-based
T1 construct: expressed in transfected cells
Experimental: (§1) Experiments were performed in triplicate.

[1] = biological target: T2, FKBP variant V24A-YFP fusion protein (Homo sapiens, UniProt P62942, F37V/V25A); experiment: as above; type: cell-based; details: NIH3T3 cells stably expressing V24A FKBP-YFP
T2 construct: expressed in transfected cells; host or cells: NIH3T3 (retroviral transduction)
T2 sequence (P62942 2-108 V25A/F37V): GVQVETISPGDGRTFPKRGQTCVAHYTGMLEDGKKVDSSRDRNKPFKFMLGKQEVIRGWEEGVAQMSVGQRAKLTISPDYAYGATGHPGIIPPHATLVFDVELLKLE
Experimental: as §1

L106P-tsLuc = biological target: T3, L106P-tsLuc (Homo sapiens, UniProt P62942, F37V); experiment: In vivo bioluminescence imaging of HCT116 L106P-luciferase xenografts; set-up: species or system SCID mice
T3 construct: expressed in transfected cells
T3 sequence (P62942 with tags, fused parts or gaps F37V): as the sequence (P62942 2-108 V25A/F37V) above, with A24V, L106P counted along it

L-L106P-IL-2 [2] = biological target: T4, L-L106P-IL-2 (Homo sapiens, UniProt P60568); experiment: IL-2 secreted by HCT116 L-L106P-IL-2 cells, ELISA of culture media; type: cell-based; details: dose-dependent on Shield1 in the media
T4 construct: IL-2 signal peptide (L), human IL-2 (N); expressed in transfected cells; in culture (A11) or as xenograft in CD1 nu-/nu- mice (A13)
T4 sequence (P60568 with tags, fused parts or gaps): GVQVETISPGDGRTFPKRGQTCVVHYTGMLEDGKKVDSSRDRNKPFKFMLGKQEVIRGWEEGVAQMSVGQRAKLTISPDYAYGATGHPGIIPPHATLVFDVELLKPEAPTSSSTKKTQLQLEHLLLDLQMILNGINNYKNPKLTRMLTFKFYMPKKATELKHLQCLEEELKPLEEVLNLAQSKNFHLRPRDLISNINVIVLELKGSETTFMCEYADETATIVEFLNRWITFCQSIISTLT
Experimental: (§2) FIGS. 22A-22D show graphs relating to the conditional stabilization of a secreted immunomodulatory protein leads. […] Data are represented as the average IL-2 concentration ±SEM (n=3). […] Tumor volume was determined by caliper measurement and monitored over time. Data are represented as the average tumor volume ±SEM (n=5).
Interleukin-2 (IL-2) is a cytokine that is instrumental in immune response, inducing the differentiation and proliferation of a variety of lymphocyte populations (Gaffen, S. L. and Liu, K. D. (2004) Cytokine 28:109-23). Recombinant IL-2 is approved for clinical treatment of renal cancers and is used in a variety of other cancer therapies. Polynucleotides encoding the L106P stability-affecting protein were inserted between polynucleotides of the IL-2 gene that encode the signal peptide and the remainder of the IL-2 protein to produce the chimeric gene, L-L106P-IL-2, which was stably introduced into HCT116 cells. […]
Thermostable luciferase or the human IL-2 gene were cloned into pBMN L106P iBlasticidin and used to generate amphotropic retrovirus (Banaszynski, L. A. et al. (2006) Cell. 126:995-1004). […] Cells grown in 96-well plates (2×10^4 cells/well) were treated with Shield1 as indicated and either bioluminescence measured using an IVIS 50 (Xenogen Product from Caliper Life Sciences) following luciferin addition (300 μg/mL), or media collected for ELISA.

[3] = system: HCT116 L-L106P-IL-2 tumors; type: in vivo
Experimental: FIGS. 22A-22D show graphs relating to the conditional stabilization of a secreted immunomodulatory protein leads. […]. Data are represented as the average IL-2 concentration ±SEM (n=3). […]. Tumor volume was determined by caliper measurement and monitored over time. Data are represented as the average tumor volume ±SEM (n=5).
[…]. Tumors in the untreated control animals continued to increase in size over the course of the experiment. […].
(§3) SCID or CD1 nu-/nu-mice (Charles River Co.) received subcutaneous dorsal injections of ˜1×10^7 cells, and tumors were allowed to establish as indicated. Animals were given an intraperitoneal injection of luciferin (225 mg/kg), anesthetized (2% isoflurane), and placed on the warmed stage (37° C.) of an IVIS 100 or IVIS 200 (Xenogen Product from Caliper Life Sciences) for imaging. Light produced was measured as photons/sec for designated regions of interest as described. Tumor volumes were also determined by caliper measurement, and mice were sacrificed when tumors reached 1.44 cm^3 for survival assays. In some experiments, serum samples were collected by retino-orbital bleedings and tumors collected post-mortem and homogenized for ELISA assay of cytokines. All experiments were run with institutional IACUC approval.

L-L106P-IL-2 [4] = biological target: T4, L-L106P-IL-2; experiment: IL-2 in tumor and serum of xenografted mice, ELISA; type: in vivo, CD1 nu-/nu-mice; details: 48 hr after start
Experimental: as §2
Analysis of IL-2 levels within the tumors of treated and untreated mice confirmed dose-dependent production of IL-2 at the tumor site in mice treated at 5 or 10 mg/kg Shield1 (FIG. 22C; p=0.032). […] A dose of 5 mg/kg Shield1 was sufficient to produce the same robust anti-tumor response as 10 mg/kg Shield1, while avoiding the increase in IL-2 serum levels associated with the higher ligand dose.
as §3

vvDD = type: cell-based, vaccinia virus
[5] = mouse, in vivo
FKBP F36V variant = FKBP F36V variant (Homo sapiens, UniProt P62942, F37V); details: Clackson et al. 1998; cited from earlier work
Sequence of FKBP F36V variant (P62942 2-108 F37V limits assumed): as the sequence (P62942 2-108 V25A/F37V) above, with A24V counted along it

HCT116 tumors = experiment: vvDD L-L106P-IL-2 in mice bearing HCT116 tumors
FKBP-YFP fusion proteins [6] = biological target: FKBP-YFP fusion proteins (Homo sapiens, UniProt P62942, F37V); experiment: Kinetics of FKBP-YFP fluorescence upon addition of Shield1; details: L106P-YFP, various concentrations of Shield1
Sequence of FKBP-YFP fusion proteins (Homo sapiens, UniProt P62942, F37V) (P62942 with tags, fused parts or gaps F37V): as the sequence (P62942 2-108 V25A/F37V) above, with A24V, L106P counted along it

FKBP-YFP fusion proteins [7] = experiment: as above
[8] = cited from earlier work

T1 sequence (P62942 with tags, fused parts or gaps F37V): as the sequence (P62942 2-108 V25A/F37V) above, with A24V, L106P counted along it

For “1-[2-(3,4,5-trimethoxy-phenyl)-butyryl]-piperazine-2-carboxylic acid 3-(3,4-dimethoxy-phenyl)-1-[3-(2-morpholin-4-yl-ethoxy)-phenyl]-propyl ester [Shield1]”, the “Stabilization of FKBP L106P-YFP fusion protein” value (FKBP L106P-YFP fusion; 1 μM Shield1) was “fully stabilized”, the EC50 (FKBP L106P-YFP fusion; NIH3T3 cells stably expressing L106P-YFP, read-out: EC50 of Shield1 to stabilize the YFP fusion protein) was roughly 100 nM and the EC50 [1] was roughly 5 nM. For the same substance, the “Time for bioluminescent signals to return to background” value (L106P-tsLuc; 10 mg/kg ip) was no more than 48 h, the “Increase in bioluminescent signal in the presence compared to the absence of Shield1” value (L106P-tsLuc; 10 mg/kg ip, FIG. 21B) was roughly 10 fold and the “Time of maximum expression levels following treatment” value (L106P-tsLuc; 10 mg/kg ip, L106P-tsLuc, FIG. 21A) was 12 h. The “Bioluminescence under periodic treatment” value (L106P-tsLuc; 10 mg/kg once every 48 hours) was “maintain increased bioluminescence levels over the course of several weeks”, the “Bioluminescence with increasing doses” value (L106P-tsLuc; 3, 6, or 10 mg/kg) was “increasing bioluminescence levels” and the “Time of peak luminescence following a single injection of ligand” value (L106P-tsLuc; FIG. 7A, luciferase fused to FKBP F36V/L106P) was “about 10 hours”. For the same substance, the “Dynamic range of secreted IL-2” value (L-L106P-IL-2 [2]) was “approximately 25 fold”, the Tumor establishment ([3]; cells pretreated with Shield1, then 10 mg/kg every 48 hours) was “Tumors failed to establish” and the “Tumor burden relative to untreated animals” value ([3]; day 16, all Shield1-treated groups) was “significantly reduced tumor burden”. The Tumor size ([3]; i.p. 5 or 10 mg/kg every 48 hours from five days after implantation) was “tumor regression”, the “IL-2 per gram tumor tissue” value (L-L106P-IL-2 [4]; 5 mg/kg) was “more IL-2 than tumors from untreated mice” and the “Serum IL-2 levels” value (L-L106P-IL-2 [4]; 5 mg/kg) was “did not produce any increase in serum IL-2 levels”. The “IL-2 per gram tumor tissue” value (L-L106P-IL-2 [4]; 10 mg/kg) was “significantly higher levels of IL-2 than tumors from mice treated at 5 mg/kg”, the “Serum IL-2 levels” value (L-L106P-IL-2 [4]; 10 mg/kg) was “significantly higher levels of serum IL-2; also recorded: significantly elevated levels” and the “Replication of the virus” value (vvDD) was “did not affect the replication of the virus”. For the same substance, the “Feeding behavior, body weight, overall activity” value [5] was “did not appear to affect feeding behavior, body weight, or overall activity”, the “Binding tighter to the F36V variant compared to wild-type FKBP” value (FKBP F36V variant) was “about 1,000 fold” and the “Treg infiltration into tumor” value (HCT116 tumors; delayed clearance of virus) was “increase in Treg infiltration”. The “Survival of treated animals” value (HCT116 tumors; no Shield1 during the first 72 hours after vvDD L-L106P-IL-2) was “greater percent survival of the treated animals”, the “Time until YFP expression is observed” value (FKBP-YFP fusion proteins [6]) was no more than 15 min and the “Time of maximum fluorescence after addition of Shield1” value (FKBP-YFP fusion proteins [7]; NIH3T3 cells, FKBP-YFP variants) was 24 h. For the same substance, the “Time fluorescence is stably maintained without further addition of Shield1” value (FKBP-YFP fusion proteins [7]; after the maximum at 24 hours) was no less than 48 h.

In the case of C20-methallylrapamycin [MaRap], the “Pharmacokinetic properties in vivo” value [8] is listed as “poor pharmacokinetic properties in vivo”.
